15 compounds from patent US20140005163A1 (NOVARTIS AG, priority 2010, published 2014) can be followed below.

One series in a line: Solubility at pH 6.8. In kind it is physicochemical. From the text: The physicochemical properties of relevance for the absorption of the compound, such as the solubility and the membrane permeability, especially at a pH close to neutral pH can be measured using the procedure as described by L. ZHOU et al. in JOURNAL OF PHARMACEUTICAL SCIENCES, VOL. 96, NO. 11, p. 3052-3071 (2007) for the solubility at pH 6.8 and the procedure as described by F. Wohnsland and B. Faller in Journal of Medicinal Chemistry Vol 44, p. 923-930 (2001) for the Parallel Artificial Membrane Permeability Assay (PAMPA) at pH 6.8.

Series [1] relates to PKB Ser473 phosphorylation in Rat1-myr-HA-p110 alpha cells. Nature of the series: Reverse protein array assay, PKB Ser473 phosphorylation in Rat1-myr-p110 alpha cells. To be noted: 0.5 h, pAkt Ser473, 30 minutes compound incubation, read-out: p-PKB IC50. The format is cell-based. The method in brief:
(§1)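 Rat1 cells expressing myristoylated HA-tagged p110 alpha, beta or delta were plated for at least 20 h, then exposed to 8-step serial compound dilutions (0.2% DMSO final) for 30 min at 37 °C. Lysates were spotted at four dilutions on protein microarrays, and relative fluorescence intensity of phospho-Ser473 PKB was calculated.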

The target in a further series is T1, mTOR (Homo sapiens, UniProt P42345).
T1 construct: purchased Invitrogen Corporation (Carlsbad/CA, USA) PV4753
As to the kind of experiment: Biochemical assay for m-TOR by TR-FRET. To be noted: 8 μM ATP, 400 nM GFP-4EBP1, 0.5 nM mTOR. The method in brief: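 TR-FRET detection of pThr46 on GFP-4EBP1 (400 nM final) using Tb3+-labelled antibody (0.5 nM), added with EDTA to stop reactions. Reactions ran at rt with 0.5 nM mTOR and 8 μM ATP (final) in HEPES pH 7.5 buffer containing 10 mM MnCl2.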

The test system of series [2] is PKB Ser473 phosphorylation in Rat1-myr-HA-p110 beta cells. Nature of the series: Reverse protein array assay, PKB Ser473 phosphorylation in Rat1-myr-p110 beta cells. To be noted: 0.5 h, pAkt Ser473, 30 minutes incubation, read-out: p-PKB IC50. In kind it is cell-based. The method in brief:
as §1

The next series concerns the target T2, PI3K alpha (Homo sapiens, UniProt P42336).
T2 construct: p85(iSH2) fusion partner (see partner chain) (N); His tag (C); made in house; host or cells: baculovirus; Tn5 (Trichoplusia ni) or TiniPro insect cells
As to the kind of experiment: PI3K alpha kinase assay (Kinase-Glo luminescence). In kind it is biochemical. The method in brief:
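Luminescent ATP-depletion assay (Kinase-Glo) with 10 nM PI3Kα and 10 μg/mL phosphatidylinositol as lipid substrate at 1 μM ATP. Incubation lasts 60 min at room temperature.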

Series [3] concerns PKB Ser473 phosphorylation in Rat1-myr-HA-p110 delta cells. Nature of the series: Reverse protein array assay, PKB Ser473 phosphorylation in Rat1-myr-p110 delta cells. The format is cell-based. As to conditions: read-out: p-PKB IC50. The method in brief:
as §1

A further series has as its target T3, PI3K delta (Homo sapiens, UniProt O00329).
T3 construct: for the full-length p110-d subunit are generated and fused by overlapping PCR; p85(iSH2) fusion partner (see partner chain) (N); His tag (C); made in house; host or cells: baculovirus; Tn5 (Trichoplusia ni) or TiniPro insect cells
Nature of the series: PI3K delta kinase assay (Kinase-Glo luminescence). In kind it is biochemical. The method in brief:
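Inhibition is derived from luminescent detection of unconsumed ATP. The reaction runs for one hour at ambient temperature and contains the δ isoform fusion protein, phosphatidylinositol substrate and low (1 μM) ATP. Eight compound concentrations are tested in single, and a 4-parameter logistic model is used to calculate IC50.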

The mark [4] stands for this setting: pH 6.8, aqueous buffer, thermodynamic from solid, read-out: solubility.

Converted amounts (≈) assume the structure as drawn. Like-named read-outs stand apart in the source and are kept apart here. A value given as a limit tells only on which side of the number the result lay.

T1 sequence (P42345 1360-2549 limits assumed): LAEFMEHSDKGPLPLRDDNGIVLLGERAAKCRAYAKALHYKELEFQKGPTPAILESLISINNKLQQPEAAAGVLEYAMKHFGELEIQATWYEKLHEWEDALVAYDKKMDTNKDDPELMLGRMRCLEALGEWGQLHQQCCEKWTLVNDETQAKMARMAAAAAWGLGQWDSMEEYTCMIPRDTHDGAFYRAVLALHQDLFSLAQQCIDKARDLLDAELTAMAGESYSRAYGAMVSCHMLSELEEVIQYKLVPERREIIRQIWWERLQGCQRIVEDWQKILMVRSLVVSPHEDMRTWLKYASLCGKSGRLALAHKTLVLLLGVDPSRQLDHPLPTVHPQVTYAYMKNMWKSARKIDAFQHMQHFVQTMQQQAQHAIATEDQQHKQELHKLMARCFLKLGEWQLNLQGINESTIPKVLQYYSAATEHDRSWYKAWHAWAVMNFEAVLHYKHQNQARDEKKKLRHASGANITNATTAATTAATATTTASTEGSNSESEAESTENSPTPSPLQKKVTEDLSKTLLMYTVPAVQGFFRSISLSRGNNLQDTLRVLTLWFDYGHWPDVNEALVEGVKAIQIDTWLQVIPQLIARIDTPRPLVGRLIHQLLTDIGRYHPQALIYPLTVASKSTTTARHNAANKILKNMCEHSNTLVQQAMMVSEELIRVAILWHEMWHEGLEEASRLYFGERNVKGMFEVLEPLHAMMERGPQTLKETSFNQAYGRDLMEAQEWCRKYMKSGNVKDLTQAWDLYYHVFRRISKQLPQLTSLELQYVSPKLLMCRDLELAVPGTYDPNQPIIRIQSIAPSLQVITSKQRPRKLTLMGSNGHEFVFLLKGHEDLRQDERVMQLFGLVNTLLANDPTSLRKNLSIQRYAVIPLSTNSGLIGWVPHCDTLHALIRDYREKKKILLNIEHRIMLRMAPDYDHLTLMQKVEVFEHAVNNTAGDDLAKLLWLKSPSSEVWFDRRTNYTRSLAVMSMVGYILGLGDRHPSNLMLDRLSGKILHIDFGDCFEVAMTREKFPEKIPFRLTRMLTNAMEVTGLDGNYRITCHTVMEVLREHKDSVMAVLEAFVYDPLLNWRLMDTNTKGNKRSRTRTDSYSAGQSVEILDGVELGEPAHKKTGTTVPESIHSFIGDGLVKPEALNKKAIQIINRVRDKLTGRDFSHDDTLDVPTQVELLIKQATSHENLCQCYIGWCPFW
T3 sequence (O00329 with tags, fused parts or gaps limits assumed): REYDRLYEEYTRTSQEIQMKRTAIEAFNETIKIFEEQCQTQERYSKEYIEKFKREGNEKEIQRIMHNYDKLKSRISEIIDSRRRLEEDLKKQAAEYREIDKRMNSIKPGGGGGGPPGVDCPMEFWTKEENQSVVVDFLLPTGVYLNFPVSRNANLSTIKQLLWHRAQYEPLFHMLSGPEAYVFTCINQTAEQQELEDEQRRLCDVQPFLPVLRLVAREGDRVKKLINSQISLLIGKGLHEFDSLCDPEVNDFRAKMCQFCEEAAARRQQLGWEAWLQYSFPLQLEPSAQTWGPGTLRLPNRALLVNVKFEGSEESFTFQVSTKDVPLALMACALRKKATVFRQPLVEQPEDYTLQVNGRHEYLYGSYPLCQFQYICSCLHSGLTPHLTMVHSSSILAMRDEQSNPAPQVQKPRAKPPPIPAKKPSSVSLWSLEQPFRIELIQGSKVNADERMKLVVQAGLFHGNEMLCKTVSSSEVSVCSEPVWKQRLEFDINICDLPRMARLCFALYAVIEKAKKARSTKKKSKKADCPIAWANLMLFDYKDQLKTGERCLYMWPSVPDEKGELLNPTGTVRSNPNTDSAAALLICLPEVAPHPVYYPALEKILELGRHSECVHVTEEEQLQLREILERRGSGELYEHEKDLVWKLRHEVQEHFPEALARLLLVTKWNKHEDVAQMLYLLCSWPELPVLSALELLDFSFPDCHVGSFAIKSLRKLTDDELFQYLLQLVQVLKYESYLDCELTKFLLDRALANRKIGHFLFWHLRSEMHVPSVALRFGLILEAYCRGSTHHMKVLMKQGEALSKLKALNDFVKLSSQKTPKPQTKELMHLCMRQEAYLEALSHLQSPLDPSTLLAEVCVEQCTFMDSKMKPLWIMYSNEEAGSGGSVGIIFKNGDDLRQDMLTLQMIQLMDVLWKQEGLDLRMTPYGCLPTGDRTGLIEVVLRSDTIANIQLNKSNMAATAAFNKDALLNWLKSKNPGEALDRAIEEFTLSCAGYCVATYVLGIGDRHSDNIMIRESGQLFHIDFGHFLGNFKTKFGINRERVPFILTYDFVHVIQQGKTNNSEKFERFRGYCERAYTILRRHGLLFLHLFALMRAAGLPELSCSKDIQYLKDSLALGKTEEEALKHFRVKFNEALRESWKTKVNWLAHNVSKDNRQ
T2 sequence (P42336 with tags, fused parts or gaps limits assumed): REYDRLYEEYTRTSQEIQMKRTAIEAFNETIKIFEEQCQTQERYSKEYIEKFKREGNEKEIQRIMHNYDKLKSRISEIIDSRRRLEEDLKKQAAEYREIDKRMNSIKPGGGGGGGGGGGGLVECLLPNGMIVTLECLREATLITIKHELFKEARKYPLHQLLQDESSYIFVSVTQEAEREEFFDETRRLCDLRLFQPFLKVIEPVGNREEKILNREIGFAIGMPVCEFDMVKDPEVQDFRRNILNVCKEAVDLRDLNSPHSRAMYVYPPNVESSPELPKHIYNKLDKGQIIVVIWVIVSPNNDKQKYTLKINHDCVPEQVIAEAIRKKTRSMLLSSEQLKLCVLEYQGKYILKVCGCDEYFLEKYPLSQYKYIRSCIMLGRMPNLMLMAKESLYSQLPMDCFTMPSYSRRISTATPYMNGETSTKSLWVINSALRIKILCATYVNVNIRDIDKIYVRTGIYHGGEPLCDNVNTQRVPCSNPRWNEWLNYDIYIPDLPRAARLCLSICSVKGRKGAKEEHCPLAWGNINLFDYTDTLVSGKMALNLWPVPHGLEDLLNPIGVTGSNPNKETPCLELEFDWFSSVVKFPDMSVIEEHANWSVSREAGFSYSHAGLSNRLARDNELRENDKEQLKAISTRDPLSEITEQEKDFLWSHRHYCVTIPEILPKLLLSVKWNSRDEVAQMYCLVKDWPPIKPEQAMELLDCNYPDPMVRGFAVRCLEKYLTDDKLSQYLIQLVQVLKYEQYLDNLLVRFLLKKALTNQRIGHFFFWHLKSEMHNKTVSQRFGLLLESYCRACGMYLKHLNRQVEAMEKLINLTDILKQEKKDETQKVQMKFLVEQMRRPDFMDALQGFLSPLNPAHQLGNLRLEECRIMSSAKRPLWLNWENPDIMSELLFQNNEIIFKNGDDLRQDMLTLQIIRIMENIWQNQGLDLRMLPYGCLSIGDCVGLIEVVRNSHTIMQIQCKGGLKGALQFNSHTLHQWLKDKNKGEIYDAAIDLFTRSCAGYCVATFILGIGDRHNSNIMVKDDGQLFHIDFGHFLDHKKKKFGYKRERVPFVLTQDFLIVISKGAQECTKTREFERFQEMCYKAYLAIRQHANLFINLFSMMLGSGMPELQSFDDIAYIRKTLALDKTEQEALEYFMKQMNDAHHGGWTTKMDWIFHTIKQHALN

For the compound `CN(C)c1ccc(-c2ccc3ncc4c(c3c2)n(-c2ccnn2C)c(=O)n4C)cn1` [Example 4.7, 8-(6-Dimethylamino-pyridin-3-yl)-3-methyl-1-(2-methyl-2H-pyrazol-3-yl)-1,3-dihydro-imidazo[4,5-c]quinolin-2-one], the solubility in the series “Solubility at pH 6.8” (setting [4]) was 3 µg/mL (≈ 7.51 µM). Moreover, the IC50 in series [1] is 134 nM; at mTOR it was 505 nM; in series [2], 121 nM; at PI3K alpha, 461 nM; in series [3], 547 nM.
As for `Cn1nccc1-n1c(=O)n(C)c2cnc3ccc(-c4ccc(C(F)(F)F)nc4)cc3c21` [Example 8.1, 3-Methyl-1-(2-methyl-2H-pyrazol-3-yl)-8-(6-trifluoromethyl-pyridin-3-yl)-1,3-dihydro-imidazo[4,5-c]quinolin-2-one], the solubility in “Solubility at pH 6.8” (setting [4]) was found to be 18 µg/mL (≈ 42.4 µM). In addition, the half-maximal inhibitory concentration (IC50) in series [1] is 589 nM; on mTOR it was 734 nM; at PI3K alpha, 210 nM; on PI3K delta, 167 nM.
As to `Cc1cc(-n2c(=O)n(C)c3cnc4ccc(-c5cccnc5F)cc4c32)n(C)n1` [Example 9, 1-(2,5-Dimethyl-2H-pyrazol-3-yl)-8-(2-fluoro-pyridin-3-yl)-3-methyl-1,3-dihydro-imidazo[4,5-c]quinolin-2-one], the solubility in “Solubility at pH 6.8” (setting [4]) amounted to 9 µg/mL (≈ 23.2 µM). Also, the values for the IC50 on mTOR, on PI3K alpha and on PI3K delta were 383 nM, 246 nM and 737 nM, respectively.
For `Cn1nccc1-n1c(=O)n(C)c2cnc3ccc(-c4ccnc(F)c4)cc3c21` [Example 11, 8-(2-Fluoro-pyridin-4-yl)-3-methyl-1-(2-methyl-2H-pyrazol-3-yl)-1,3-dihydro-imidazo[4,5-c]quinolin-2-one], in “Solubility at pH 6.8” (pH 6.8), the solubility was found to be 2 µg/mL (≈ 5.34 µM). Moreover, the IC50 at PI3K delta worked out at 810 nM.
In the series “Solubility at pH 6.8” (pH 6.8), `Cc1nn(C)cc1-n1c(=O)n(C)c2cnc3ccc(-c4cnc5c(c4)n(C)c(=O)n5C)cc3c21` [Example 67, 8-(1,3-Dimethyl-2-oxo-2,3-dihydro-1H-imidazo[4,5-b]pyridin-6-yl)-1-(1,3-dimethyl-1H-pyrazol-4-yl)-3-methyl-1,3-dihydro-imidazo[4,5-c]quinolin-2-one] showed a solubility of 2 µg/mL (≈ 4.4 µM). Also, the figures for the 50% inhibitory concentration (IC50) in series [1], in series [2] and in series [3] were 166 nM, 171 nM and 298 nM, respectively.
`Cc1nn(C)cc1-n1c(=O)n(C)c2cnc3ccc(-c4cnc5c(c4)nc(C)n5C)cc3c21` [Example 73, 8-(2,3-Dimethyl-3H-imidazo[4,5-b]pyridin-6-yl)-1-(1,3-dimethyl-1H-pyrazol-4-yl)-3-methyl-1,3-dihydro-imidazo[4,5-c]quinolin-2-one]: the solubility in “Solubility at pH 6.8” (setting [4]) worked out at 41 µg/mL (≈ 93.5 µM). Further, the IC50 in series [1] amounted to 337 nM; on mTOR, 160 nM; in series [2], 417 nM; at PI3K alpha it was 173 nM; on PI3K delta, 372 nM; in series [3], 530 nM.
In the case of `CCN(C)c1ccc(-c2ccc3ncc4c(c3c2)n(-c2cn(C(C)C)nc2C)c(=O)n4C)cn1` [Example 98.2, 8-[6-(Ethyl-methyl-amino)-pyridin-3-yl]-1-(1-isopropyl-3-methyl-1H-pyrazol-4-yl)-3-methyl-1,3-dihydro-imidazo[4,5-c]quinolin-2-one], in the series “Solubility at pH 6.8” (setting [4]), the solubility was found to be 75 µg/mL (≈ 165 µM). The IC50 in series [1] worked out at 10 nM; at mTOR, 30 nM; in series [2], 18 nM; on PI3K alpha, 118 nM; on PI3K delta, 101 nM; in series [3], 59 nM.
Regarding `CCN(C)c1ccc(-c2ccc3ncc4c(c3c2)n(-c2cn(CC)nc2C)c(=O)n4C)cn1` [Example 98.3, 8-[6-(Ethyl-methyl-amino)-pyridin-3-yl]-1-(1-ethyl-3-methyl-1H-pyrazol-4-yl)-3-methyl-1,3-dihydro-imidazo[4,5-c]quinolin-2-one], the solubility in the series “Solubility at pH 6.8” (setting [4]) came out at 10 µg/mL (≈ 22.6 µM). In addition, the IC50 in series [1] is 12 nM; on mTOR, 22 nM; in series [2] it was 16 nM; at PI3K alpha, 55 nM; at PI3K delta, 72 nM; in series [3] it was 43 nM.
Take `Cc1nn(C)cc1-n1c(=O)n(C)c2cnc3ccc(-c4cnn(CCO)c4)cc3c21` [Example 106, 1-(1,3-Dimethyl-1H-pyrazol-4-yl)-8-[1-(2-hydroxy-ethyl)-1H-pyrazol-4-yl]-3-methyl-1,3-dihydro-imidazo[4,5-c]quinolin-2-one]: the solubility in “Solubility at pH 6.8” (setting [4]) was above 403 µg/mL. Further, the values for the IC50 at mTOR, on PI3K alpha and on PI3K delta were 672 nM, 154 nM and 147 nM, respectively.
In the case of `Cc1nn(C(C)C)cc1-n1c(=O)n(C)c2cnc3ccc(-c4ccccn4)cc3c21` [Example 113, 1-(1-Isopropyl-3-methyl-1H-pyrazol-4-yl)-3-methyl-8-pyridin-2-yl-1,3-dihydro-imidazo[4,5-c]quinolin-2-one], in “Solubility at pH 6.8” (setting [4]), the solubility turned out to be 30 µg/mL (≈ 75.3 µM). The IC50 in series [1] is 818 nM.
Regarding `Cc1nn(C)cc1-n1c(=O)n(C)c2cnc3ccc(-c4ccccn4)cc3c21` [Example 114, 1-(1,3-Dimethyl-1H-pyrazol-4-yl)-3-methyl-8-pyridin-2-yl-1,3-dihydro-imidazo[4,5-c]quinolin-2-one], in the series “Solubility at pH 6.8” (setting [4]), the solubility was 61 µg/mL (≈ 165 µM). For the same compound, the IC50 in series [1] turned out to be 303 nM; in series [2] it was 725 nM.
In the case of `Cc1nn(C)cc1-n1c(=O)n(C)c2cnc3ccc(-c4ccnc(N(C)C(C)C)c4)cc3c21` [Example 130, 1-(1,3-Dimethyl-1H-pyrazol-4-yl)-8-[2-(isopropyl-methyl-amino)-pyridin-4-yl]-3-methyl-1,3-dihydro-imidazo[4,5-c]quinolin-2-one], the solubility in “Solubility at pH 6.8” (setting [4]) was found to be 74 µg/mL (≈ 168 µM). The 50% inhibitory concentration (IC50) in series [1] was 330 nM; on mTOR, 494 nM; at PI3K alpha, 785 nM; at PI3K delta it was 386 nM.
Consider `Cc1nn(C)cc1-n1c(=O)n(C)c2cnc3ccc(-c4ccc(N5CC[C@H](O)C5)nc4)cc3c21` [Example 212.2, 1-(1,3-Dimethyl-1H-pyrazol-4-yl)-8-[6-((S)-3-hydroxy-pyrrolidin-1-yl)-pyridin-3-yl]-3-methyl-1,3-dihydro-imidazo[4,5-c]quinolin-2-one], for which the solubility in “Solubility at pH 6.8” (setting [4]) amounted to 43 µg/mL (≈ 94.4 µM). For the same compound, the IC50 in series [1] was 115 nM; at mTOR, 92 nM; in series [2], 185 nM; on PI3K alpha, 215 nM; at PI3K delta it was 647 nM.
With `CNC(=O)Cc1cncc(-c2ccc3ncc4c(c3c2)n(-c2cn(C)nc2C)c(=O)n4C)c1` [Example 228, 2-{5-[1-(1,3-Dimethyl-1H-pyrazol-4-yl)-3-methyl-2-oxo-2,3-dihydro-1H-imidazo[4,5-c]quinolin-8-yl]-pyridin-3-yl}-N-methyl-acetamide], in the series “Solubility at pH 6.8” (setting [4]), the solubility is above 441 µg/mL. In addition, the IC50 is 85 nM on PI3K alpha and 166 nM at PI3K delta.
Regarding `CC(=O)NCc1cncc(-c2ccc3ncc4c(c3c2)n(-c2cn(C)nc2C)c(=O)n4C)c1` [Example 231, N-{5-[1-(1,3-Dimethyl-1H-pyrazol-4-yl)-3-methyl-2-oxo-2,3-dihydro-1H-imidazo[4,5-c]quinolin-8-yl]-pyridin-3-ylmethyl}-acetamide], the solubility in “Solubility at pH 6.8” (setting [4]) amounted to 413 µg/mL (≈ 935 µM). For the same compound, the results for the 50% inhibitory concentration (IC50) on mTOR and at PI3K alpha were 542 nM and 405 nM, respectively.
